Source: ChEMBL document CHEMBL1201862, “PubChem BioAssay data set” (2004)
Active and inactive are the calls of the source.

How the values were obtained:
[1] = target: T1, Sphingosine 1-phosphate receptor 2 (Homo sapiens, UniProt O95136); test: Dose Response Cell Based Assay for Antagonists of the S1P2 Receptor. [Related pubchem assays: 856, 736 ]; assay type: functional
Estrogen receptor beta = Estrogen receptor beta (Homo sapiens, UniProt Q92731);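 further: recombinant ER-beta bound to coactivator SRC1 peptide in presence of estradiol agonist; inhibitors block coactivator peptide binding and lower the FRET signal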
Prothrombin = Prothrombin (Homo sapiens, UniProt P00734); test: Thrombin 1536 HTS Dose Response Confirmation. [Related pubchem assays: 1046 (Thrombin 1536 HTS; hits were confirmed in this assay)]; assay type: functional
[2] = target: T1, Sphingosine 1-phosphate receptor 2; test: Dose Response Cell Based Assay for Agonists of the S1P2 Receptor of Purchased Analogues. [Related pubchem assays: 729, 843, 854, 736 ]; assay type: functional
[3] = target: Peroxisome proliferator-activated receptor gamma/Nuclear receptor corepressor 2 (Homo sapiens, UniProt P37231+Q9Y618); test: Counterscreen for NR2E3 inverse agonists: TR-FRET-based biochemical high throughput dose response assay to identify inverse agonists of the interaction between peroxisome proliferator-activated receptor gamma (PPARg) and nuclear receptor co-repressor 2 (NCOR2).; assay type: functional
[4] = target: Photoreceptor-specific nuclear receptor (Homo sapiens, UniProt Q9Y5X4); test: NR2E3 inverse agonists, dose response, biochemical, TR-FRET (AID 463256); assay type: functional
Sequence of Photoreceptor-specific nuclear receptor (Q9Y5X4 whole entry): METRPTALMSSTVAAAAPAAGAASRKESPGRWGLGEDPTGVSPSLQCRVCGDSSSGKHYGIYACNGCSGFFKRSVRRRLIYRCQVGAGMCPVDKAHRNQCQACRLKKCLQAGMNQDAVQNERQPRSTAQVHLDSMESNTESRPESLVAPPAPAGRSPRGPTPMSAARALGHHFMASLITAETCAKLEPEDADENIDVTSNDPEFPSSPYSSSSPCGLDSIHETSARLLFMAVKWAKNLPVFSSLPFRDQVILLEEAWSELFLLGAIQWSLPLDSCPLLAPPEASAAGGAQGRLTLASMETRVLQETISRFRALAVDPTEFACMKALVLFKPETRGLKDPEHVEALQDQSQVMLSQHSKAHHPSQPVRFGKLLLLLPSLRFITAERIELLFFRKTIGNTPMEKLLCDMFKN

[5] = target: T2, E3 ubiquitin-protein ligase XIAP (Homo sapiens, UniProt P98170); test: Counter Screen using XIAP-Bir3 for Chemical Antagonists of Bir1/2 domains of IAP-family anti-apoptotic proteins. [Related pubchem assays (depositor defined):AID1018, AID1449, AID1514, AID1638, AID1749, AID1750, AID488957, AID488963]
T2 sequence (P98170 whole entry): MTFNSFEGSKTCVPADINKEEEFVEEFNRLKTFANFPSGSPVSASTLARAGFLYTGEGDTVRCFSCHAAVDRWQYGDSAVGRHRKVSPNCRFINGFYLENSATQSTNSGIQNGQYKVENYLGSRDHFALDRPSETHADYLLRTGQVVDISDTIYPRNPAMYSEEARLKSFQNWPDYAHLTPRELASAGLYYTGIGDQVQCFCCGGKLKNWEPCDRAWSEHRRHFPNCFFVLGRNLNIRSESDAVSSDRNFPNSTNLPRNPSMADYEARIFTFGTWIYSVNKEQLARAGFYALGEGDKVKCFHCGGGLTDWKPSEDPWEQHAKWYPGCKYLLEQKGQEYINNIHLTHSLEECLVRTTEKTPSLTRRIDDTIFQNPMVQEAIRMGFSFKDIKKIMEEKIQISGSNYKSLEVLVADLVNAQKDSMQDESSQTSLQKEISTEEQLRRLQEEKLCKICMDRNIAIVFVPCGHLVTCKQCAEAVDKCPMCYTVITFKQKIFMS

[6] = target: T2, E3 ubiquitin-protein ligase XIAP; test: XIAP antagonists, biochemical, IAP family, fluorescence polarization (AID 1018); assay type: functional
Genome polyprotein = Genome polyprotein (Hepatitis C virus, UniProt Q2Q167); test: HCV core protein dimerization inhibitors, dose response, biochemical, TR-FRET (AID 2159); parameters: species or system Hepacivirus hominis;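 further: blocks dimerization of HCV core protein measured by TR-FRET between tagged core106 pairs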
Sequence of Genome polyprotein (Q2Q167 whole entry): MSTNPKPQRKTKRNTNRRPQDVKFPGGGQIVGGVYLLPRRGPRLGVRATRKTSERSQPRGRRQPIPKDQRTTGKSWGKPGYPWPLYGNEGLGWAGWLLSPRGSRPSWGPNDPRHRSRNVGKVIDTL

[7] = M. tuberculosis H37Rv growth inhibitors, H37Rv strain (AID 1626); assay type: functional
[8] = target: T3, Probable nicotinate-nucleotide adenylyltransferase (Staphylococcus aureus (strain N315), UniProt P65502); assay type: functional, Staphylococcus aureus subsp. aureus N315; conditions: read-out: IC50_Mean;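 on IC50 Mean: confirmatory dose-response retesting of NadD inhibitor hits first found in an ultra-high-throughput screen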
T3 sequence (P65502 whole entry): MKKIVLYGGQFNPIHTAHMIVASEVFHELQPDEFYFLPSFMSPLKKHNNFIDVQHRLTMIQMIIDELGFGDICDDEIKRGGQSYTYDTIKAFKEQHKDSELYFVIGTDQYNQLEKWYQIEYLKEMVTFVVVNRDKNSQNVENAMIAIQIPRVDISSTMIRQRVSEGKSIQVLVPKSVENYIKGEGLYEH

Aspartyl aminopeptidase = Aspartyl aminopeptidase (Plasmodium falciparum 3D7, UniProt Q8I2J3); test: Counterscreen for inhibitors of M1 and M17 aminopeptidases: QFRET-based biochemical high throughput dose response assay for inhibitors of the Plasmodium falciparum M18 Aspartyl Aminopeptidase (PFM18AAP). [Related PubChem assays: 1619 (Screening assay (M17LAP inhibitors).), 1445 (Screening assay (M1AAP inhibitors).)]
Sequence of Aspartyl aminopeptidase (Q8I2J3 whole entry): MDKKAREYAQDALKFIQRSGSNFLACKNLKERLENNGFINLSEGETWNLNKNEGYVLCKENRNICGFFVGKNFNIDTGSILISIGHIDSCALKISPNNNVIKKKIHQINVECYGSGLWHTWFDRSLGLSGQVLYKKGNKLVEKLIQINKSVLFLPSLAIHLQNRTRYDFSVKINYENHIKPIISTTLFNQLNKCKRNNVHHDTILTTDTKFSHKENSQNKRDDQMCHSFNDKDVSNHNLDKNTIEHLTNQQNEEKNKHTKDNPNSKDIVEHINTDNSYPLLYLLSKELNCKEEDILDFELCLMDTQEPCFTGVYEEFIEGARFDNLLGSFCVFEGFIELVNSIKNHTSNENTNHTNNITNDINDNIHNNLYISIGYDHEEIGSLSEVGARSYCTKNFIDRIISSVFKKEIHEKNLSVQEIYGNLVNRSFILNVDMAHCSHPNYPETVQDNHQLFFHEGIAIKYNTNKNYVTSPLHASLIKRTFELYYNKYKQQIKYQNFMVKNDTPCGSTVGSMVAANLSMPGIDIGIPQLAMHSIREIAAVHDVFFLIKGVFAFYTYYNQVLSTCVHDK

Leucine aminopeptidase = target: T4, Leucine aminopeptidase (Plasmodium falciparum 3D7, UniProt Q8IL11); test: P. falciparum M17LAP inhibitors, primary screen, biochemical, fluorogenic H-Leu-NHMec substrate, 1536-well (AID 1619); assay type: functional
T4 sequence (Q8IL11 whole entry): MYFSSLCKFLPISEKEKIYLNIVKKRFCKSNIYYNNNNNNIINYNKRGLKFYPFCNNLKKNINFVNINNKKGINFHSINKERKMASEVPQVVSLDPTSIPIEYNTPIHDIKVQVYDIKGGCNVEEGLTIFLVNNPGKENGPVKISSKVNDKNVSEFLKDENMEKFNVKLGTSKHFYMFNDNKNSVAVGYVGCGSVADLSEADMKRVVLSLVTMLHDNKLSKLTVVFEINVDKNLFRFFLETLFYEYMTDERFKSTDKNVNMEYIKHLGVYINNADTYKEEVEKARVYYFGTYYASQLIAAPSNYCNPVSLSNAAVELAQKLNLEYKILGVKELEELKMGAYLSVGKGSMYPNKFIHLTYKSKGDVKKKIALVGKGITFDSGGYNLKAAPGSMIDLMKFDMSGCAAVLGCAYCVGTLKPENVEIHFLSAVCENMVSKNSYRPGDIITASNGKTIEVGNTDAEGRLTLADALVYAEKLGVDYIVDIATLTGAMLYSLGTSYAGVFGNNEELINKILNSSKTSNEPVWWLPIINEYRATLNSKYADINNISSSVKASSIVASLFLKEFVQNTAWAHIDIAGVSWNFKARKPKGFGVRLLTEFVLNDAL

Procathepsin L = Procathepsin L (Homo sapiens, UniProt P07711); test: cathepsin L inhibitors, dose response, counter-screen for M1/M17 aminopeptidase inhibitor project, biochemical, QFRET, 1536-well (AID 2214)
[9] = target: T3, Probable nicotinate-nucleotide adenylyltransferase; assay type: functional, Staphylococcus aureus subsp. aureus N315
Cytochrome P450 2C9 = Cytochrome P450 2C9 (Homo sapiens, UniProt P11712)
Cytochrome P450 2C19 = Cytochrome P450 2C19 (Homo sapiens, UniProt P33261); test: Cytochrome panel assay with activity outcomes. Panel member name: p450-cyp2c19 Compounds with AC50 equal or less than 10 uM are considered active; assay type: functional; conditions: read-out: AC50
[10] = target: Mitogen-activated protein kinase 10 (Homo sapiens, UniProt P53779); test: Dose response biochemical screening assay for inhibitors of c-Jun N-Terminal Kinase 3 (JNK3). [Related pubchem assays: 746 ]
Protein Tat = Protein Tat (Human immunodeficiency virus type 1 group M subtype B (isolate HXB2)(HIV-1), UniProt P04608); assay type: functional;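 further: tat binding to TAR RNA read out by fluorescence polarization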
Sequence of Protein Tat (P04608 whole entry): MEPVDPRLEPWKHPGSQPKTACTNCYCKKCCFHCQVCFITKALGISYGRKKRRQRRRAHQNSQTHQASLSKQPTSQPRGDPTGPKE

[11] = inhibitors of Vif binding to APOBEC3G peptide, primary screen, biochemical, TR-FRET, GST-Vif 1-94, biotin-A3G peptide, dose response retest (AID 1117319); assay type: functional;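 further: TR-FRET signal of purified GST-Vif binding a biotinylated A3G peptide; inhibitors lower the FRET signal by blocking Vif and A3G binding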
[12] = target: Induced myeloid leukemia cell differentiation protein Mcl-1 (Homo sapiens, UniProt Q07820); test: MCL1-BIM BH3 interaction inhibitors, dose response, biochemical, fluorescence polarization, BIM-BH3 peptide, 1536-well (AID 2217)
Sequence of Induced myeloid leukemia cell differentiation protein Mcl-1 (Q07820 whole entry): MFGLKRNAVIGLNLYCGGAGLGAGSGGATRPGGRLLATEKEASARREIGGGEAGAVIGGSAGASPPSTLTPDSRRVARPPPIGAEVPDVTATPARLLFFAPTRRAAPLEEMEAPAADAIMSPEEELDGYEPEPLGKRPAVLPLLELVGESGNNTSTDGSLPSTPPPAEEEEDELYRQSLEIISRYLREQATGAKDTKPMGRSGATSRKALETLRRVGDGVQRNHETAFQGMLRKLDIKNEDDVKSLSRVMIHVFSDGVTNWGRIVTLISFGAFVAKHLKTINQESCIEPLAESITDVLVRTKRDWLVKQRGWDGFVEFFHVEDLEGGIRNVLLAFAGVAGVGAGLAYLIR

Bcl-2-like protein 1 = Bcl-2-like protein 1 (Homo sapiens, UniProt Q07817); test: BCL-XL inhibitors, dose response, selectivity assay for MCL1 inhibitor project, biochemical, fluorescence polarization, 1536-well (AID 2218)
NADPH oxidase 1 = NADPH oxidase 1 (Homo sapiens, UniProt Q9Y5S8); test: Late-stage luminescence-based cell-based dose response assay to identify inhibitors of NADPH oxidase 1 (NOX1): Synthesized analogs 2.; assay type: functional
[13] = target: 5-hydroxytryptamine receptor 1A (Homo sapiens, UniProt P08908); assay type: functional
[14] = target: Glutathione-S-transferase (Schistosoma japonicum, UniProt Q26513); test: biotin-GST/anti-GST TR-FRET signal inhibitors, dose response, artefact control for Vif-APOBEC3G degradation inhibitor project, biochemical (AID 1117362); assay type: functional
Sequence of Glutathione-S-transferase (Q26513 whole entry): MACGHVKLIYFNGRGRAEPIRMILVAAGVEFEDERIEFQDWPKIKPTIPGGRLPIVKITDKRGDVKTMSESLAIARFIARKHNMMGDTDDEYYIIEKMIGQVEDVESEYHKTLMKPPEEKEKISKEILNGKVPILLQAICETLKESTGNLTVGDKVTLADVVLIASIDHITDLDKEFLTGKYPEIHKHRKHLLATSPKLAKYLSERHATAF

[15] = target: Ras and Rab interactor 1/Tyrosine-protein kinase ABL1 (Homo sapiens, UniProt P00519+Q13671); assay type: functional;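 further: biochemical TR-FRET dose-response test measuring inhibition of binding between Rin1 and Abl proteins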
Sequence of Ras and Rab interactor 1/Tyrosine-protein kinase ABL1 (P00519 whole entry): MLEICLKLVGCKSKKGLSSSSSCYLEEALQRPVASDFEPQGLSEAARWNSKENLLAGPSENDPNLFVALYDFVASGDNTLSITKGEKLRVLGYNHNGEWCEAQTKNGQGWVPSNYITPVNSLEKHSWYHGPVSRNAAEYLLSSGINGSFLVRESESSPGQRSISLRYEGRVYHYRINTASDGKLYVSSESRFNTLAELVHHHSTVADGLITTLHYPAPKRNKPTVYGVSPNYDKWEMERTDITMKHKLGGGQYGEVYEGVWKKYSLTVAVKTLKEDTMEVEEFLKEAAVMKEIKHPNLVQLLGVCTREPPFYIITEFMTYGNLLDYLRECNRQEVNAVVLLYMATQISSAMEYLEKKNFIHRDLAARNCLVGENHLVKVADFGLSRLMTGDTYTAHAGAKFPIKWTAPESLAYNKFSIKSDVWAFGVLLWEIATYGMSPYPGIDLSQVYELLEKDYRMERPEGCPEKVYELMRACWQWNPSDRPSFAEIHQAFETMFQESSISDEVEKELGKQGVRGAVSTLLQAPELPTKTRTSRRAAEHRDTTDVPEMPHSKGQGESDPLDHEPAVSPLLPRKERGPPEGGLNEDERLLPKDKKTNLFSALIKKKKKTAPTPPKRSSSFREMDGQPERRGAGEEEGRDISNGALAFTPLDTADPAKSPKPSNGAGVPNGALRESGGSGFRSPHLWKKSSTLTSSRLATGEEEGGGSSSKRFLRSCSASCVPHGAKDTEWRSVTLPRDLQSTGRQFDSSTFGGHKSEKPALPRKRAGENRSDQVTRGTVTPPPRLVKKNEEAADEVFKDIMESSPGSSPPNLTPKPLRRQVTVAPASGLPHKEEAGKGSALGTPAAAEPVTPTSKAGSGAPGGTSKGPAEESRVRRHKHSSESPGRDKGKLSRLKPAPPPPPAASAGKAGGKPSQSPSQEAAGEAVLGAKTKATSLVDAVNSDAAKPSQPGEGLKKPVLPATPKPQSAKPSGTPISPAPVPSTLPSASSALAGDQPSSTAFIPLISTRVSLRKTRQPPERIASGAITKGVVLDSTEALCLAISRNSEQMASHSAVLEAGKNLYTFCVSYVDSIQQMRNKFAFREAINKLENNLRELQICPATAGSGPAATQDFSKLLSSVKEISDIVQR
Sequence of Ras and Rab interactor 1/Tyrosine-protein kinase ABL1 (Q13671 whole entry): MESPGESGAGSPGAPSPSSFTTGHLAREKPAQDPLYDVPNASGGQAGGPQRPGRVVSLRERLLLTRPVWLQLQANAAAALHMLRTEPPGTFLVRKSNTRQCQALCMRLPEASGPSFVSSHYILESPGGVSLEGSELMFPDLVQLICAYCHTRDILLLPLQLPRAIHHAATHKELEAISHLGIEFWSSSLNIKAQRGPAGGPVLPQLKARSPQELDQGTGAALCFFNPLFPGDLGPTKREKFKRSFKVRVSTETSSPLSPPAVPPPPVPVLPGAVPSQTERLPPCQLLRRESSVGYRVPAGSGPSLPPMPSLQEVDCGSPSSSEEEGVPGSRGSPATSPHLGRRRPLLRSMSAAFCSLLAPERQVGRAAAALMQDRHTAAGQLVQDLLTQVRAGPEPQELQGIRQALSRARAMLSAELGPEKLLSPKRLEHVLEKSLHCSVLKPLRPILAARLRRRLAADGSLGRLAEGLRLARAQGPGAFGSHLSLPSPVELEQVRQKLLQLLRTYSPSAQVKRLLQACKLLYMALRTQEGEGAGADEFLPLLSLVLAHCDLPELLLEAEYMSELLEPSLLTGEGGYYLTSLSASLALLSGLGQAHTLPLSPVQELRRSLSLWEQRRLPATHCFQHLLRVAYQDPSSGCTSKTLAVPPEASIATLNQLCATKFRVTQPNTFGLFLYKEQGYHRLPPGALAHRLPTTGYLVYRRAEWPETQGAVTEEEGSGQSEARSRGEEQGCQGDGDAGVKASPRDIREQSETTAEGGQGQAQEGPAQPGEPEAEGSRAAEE

[16] = THP-1 cell cytotoxicity, dose response, cytotoxicity control for Vif-APOBEC3G degradation inhibitor project, THP-1 cells (AID 1117359); assay type: functional; conditions: Human immunodeficiency virus 1, THP-1
Nonstructural protein 1 = Nonstructural protein 1 (Influenza A virus, UniProt Q194T2); assay type: functional, Influenza A virus (A/California/07/2009(H1N1))
Sequence of Nonstructural protein 1 (Q194T2 whole entry): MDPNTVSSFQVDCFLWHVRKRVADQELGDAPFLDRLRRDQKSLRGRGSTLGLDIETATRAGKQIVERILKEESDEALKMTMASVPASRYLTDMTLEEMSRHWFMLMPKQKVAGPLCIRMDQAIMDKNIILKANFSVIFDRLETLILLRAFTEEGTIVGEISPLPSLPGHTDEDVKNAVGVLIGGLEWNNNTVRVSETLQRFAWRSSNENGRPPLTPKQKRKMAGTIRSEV

[17] = half-maximal inhibitory concentration for glucagon-like peptide-1 release, STC-1 cell line, dose-response (AID 1117345); assay type: functional, cell-based
Large T antigen = Large T antigen (Simian virus 40, UniProt P03070); assay type: functional, Betapolyomavirus macacae;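 further: Confirmatory-stage PubChem screen for compounds that inhibit SV40 T antigen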
[18] = Glucagon-like peptide 1 release potency, NCI-H716 cell line, dose-response, half-maximal inhibitory concentration (AID 1117344); assay type: functional, cell-based

T1 sequence (O95136 whole entry): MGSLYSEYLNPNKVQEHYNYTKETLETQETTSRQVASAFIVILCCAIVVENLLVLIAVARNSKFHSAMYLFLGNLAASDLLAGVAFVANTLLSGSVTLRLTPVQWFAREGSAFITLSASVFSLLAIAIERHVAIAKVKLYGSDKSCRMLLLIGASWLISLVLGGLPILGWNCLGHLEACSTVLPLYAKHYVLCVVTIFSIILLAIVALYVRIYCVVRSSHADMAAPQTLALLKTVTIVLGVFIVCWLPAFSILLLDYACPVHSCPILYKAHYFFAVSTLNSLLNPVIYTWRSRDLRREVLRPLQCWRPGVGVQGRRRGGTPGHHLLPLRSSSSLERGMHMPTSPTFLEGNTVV

In the case of `O=C(O)c1sc2cc(C(F)(F)F)cnc2c1-c1cccnc1`, the IC50 [1] is reported as > 30 µM (not active).

For `NC(=Nc1nc2ccccc2o1)NC(=O)c1ccccc1NC(=O)c1ccccc1`, the IC50 (Estrogen receptor beta) was > 50 µM (not active) and the IC50 (Prothrombin) was > 50 µM (inconclusive).

For `Cc1ccc(C(=O)OCC(=O)c2cc(C)n(Cc3ccccc3)c2C)o1`, the EC50 [2] was > 30 µM (not active).

For `CN(C)c1ccc(C#Cc2ccc3cc(CCO)oc(=O)c3c2)cc1`, the IC50 [3] was > 39.8 µM (not active) and the IC50 [4] was > 39.8 µM (not active).

For `CCCNC(=O)c1cc(SC)ccc1Cl`, the IC50 [5] was > 100 µM (inactive) and the IC50 [6] was > 100 µM (not active).

For `CCOC(=O)c1sc(NC(=S)NC(=O)C2CC2)cc1C`, the IC50 (Genome polyprotein) was > 49.8 µM (not active).

With `CCOc1ccc(NC(=O)N(C2CCCCC2)C2CCN(C(C)=O)CC2)cc1` the IC50 [7] was > 100 µM (active).

In the case of `Cc1ccc(Nc2nnc(SC/C(O)=C(\C#N)c3nc4ccccc4[nH]3)s2)c(C)c1`, the IC50 [8] is reported as 21.4 µM (active), the IC50 (Aspartyl aminopeptidase) is reported as > 73.5 µM (not active) and the IC50 (Leucine aminopeptidase) is reported as 6.03 µM (active). The IC50 (Procathepsin L) was > 59.6 µM (not active) and the IC50 [9] was 7.79 µM (active).

In the case of `Fc1ccc2nc3[nH]c4ccccc4c3nc2c1`, the AC50 (Cytochrome P450 2C9) is reported as 10 µM (inconclusive), the AC50 (Cytochrome P450 2C19) is reported as 20 µM (inconclusive) and the IC50 [10] is reported as 18.4 µM (not active).

With `COc1ccc(-n2c(Cc3cccn3C)nnc2SCC(N)=O)cc1` the IC50 (Protein Tat) was > 100 µM (active) and the IC50 [11] was > 100 µM (active).

In the case of `Clc1cccc(C2Nc3cccc4cccc(c34)N2)c1`, the IC50 [12] is reported as 28.6 µM (not active) and the IC50 (Bcl-2-like protein 1) is reported as > 109 µM (not active).

For `CN1c2ccccc2Sc2cc(NC(=O)CCl)ccc21`, the IC50 (NADPH oxidase 1) was 0.653 µM (active).

In the case of `CCOC(=O)c1oc2ccccc2c1NC(=O)c1cc(OC)cc(OC)c1`, the EC50 [13] is reported as > 50 µM (not active).

With `CCc1cccc(NC(=O)CCCCCC2NC(=O)NC2C)c1` (stereo unspecified) the IC50 [14] was 9.93 µM (active), the IC50 [15] was 0.00897 µM (active) and the CC50 [16] was > 40 µM (active). The IC50 (Nonstructural protein 1) was 0.825 µM (active).

For `O=C1OC2(c3ccccc31)c1cc(I)c(O)c(I)c1Oc1c2cc(I)c(O)c1I` [ERYTHROSINE], the IC50 [17] was 2.93 µM (active), the IC50 (Large T antigen) was 13 µM (active) and the IC50 [18] was > 40 µM (inactive).
